# From patent US10517889B2, “Modulators of SMAD7 expression” (Ionis Pharmaceuticals, Inc., priority 2017, dated 2019)
# Strand notation (5' to 3'): a small letter for the sugar, then the base; units joined by * are phosphorothioate-linked, units joined directly phosphodiester-linked; [ ] holds rarer units or linkages, { } end groups; capitals alone tell only the bases. k = constrained ethyl (cEt); [5mC] = 5-methylcytosine; d = 2'-deoxy (DNA)
# System: human SMAD7 mRNA
# Assay: Antisense inhibition of human SMAD7 mRNA expression in Hep3B cells by 3-10-3 cEt gapmers, 10,000 nM, electroporation (Example 2)
# Format: cell-based
# Conditions: Hep3B cells, electroporation with 10,000 nM antisense oligonucleotide, approximately 24 hours, primer probe set RTS5062, relative to untreated control cells
# In short: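 SMAD7 mRNA was measured by real-time PCR (RTS5062) with RiboGreen total-RNA normalization, about 24 h after 10,000 nM gapmer was delivered by electroporation into Hep3B cells at 20,000 per well. Gapmers were 16-mer 3-10-3 cEt, fully phosphorothioate; values are % inhibition versus untreated controls.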
Substance,% Inhibition,% inhibition of SMAD7 mRNA expression
799177 (antisense kT*kT*kA*dT*dG*dT*dT*dA*dA*dA*dG*dT*d[5mC]*kT*kA*kA) [compound 799177],0%,–
799178 (antisense kA*kG*k[5mC]*dT*dT*dA*dT*dG*dT*dT*dA*dA*dA*kG*kT*k[5mC]) [compound 799178],34%,–
799179 (antisense kA*kA*kT*dA*dG*d[5mC]*dT*dT*dA*dT*dG*dT*dT*kA*kA*kA) [compound 799179],0%,–
799180 (antisense kG*kA*kA*dA*dA*dA*dT*dA*dG*d[5mC]*dT*dT*dA*kT*kG*kT) [compound 799180],20%,–
799181 (antisense kG*kT*kT*dA*dG*dA*dA*dA*dA*dA*dT*dA*dG*k[5mC]*kT*kT) [compound 799181],37%,–
799182 (antisense kG*kT*kA*dG*dT*dT*dA*dG*dA*dA*dA*dA*dA*kT*kA*kG) [compound 799182],20%,–
799183 (antisense k[5mC]*kT*kT*dT*dG*dT*dA*dG*dT*dT*dA*dG*dA*kA*kA*kA) [compound 799183],–,0%
799185 (antisense kT*kT*kA*dA*dA*d[5mC]*d[5mC]*dT*dT*dT*dG*dT*dA*kG*kT*kT) [compound 799185],–,0%
799186 (antisense k[5mC]*kT*kT*dG*dT*dT*d[5mC]*dA*dT*dT*dT*dA*dA*kA*k[5mC]*k[5mC]) [compound 799186],–,31%
799187 (antisense k[5mC]*kT*kT*d[5mC]*dT*d[5mC]*dT*dT*dG*dT*dT*d[5mC]*dA*kT*kT*kT) [compound 799187],–,17%
799188 (antisense kT*kG*k[5mC]*dT*dT*d[5mC]*dT*d[5mC]*dT*dT*dG*dT*dT*k[5mC]*kA*kT) [compound 799188],–,43%
799189 (antisense kA*kA*kT*dG*d[5mC]*dT*dT*d[5mC]*dT*d[5mC]*dT*dT*dG*kT*kT*k[5mC]) [compound 799189],–,33%
799190 (antisense kA*kG*kA*dA*dT*dG*d[5mC]*dT*dT*d[5mC]*dT*d[5mC]*dT*kT*kG*kT) [compound 799190],–,61%
799191 (antisense kA*kT*kG*dA*dG*dA*dA*dT*dG*d[5mC]*dT*dT*d[5mC]*kT*k[5mC]*kT) [compound 799191],26%,–
799192 (antisense kT*kT*kT*d[5mC]*d[5mC]*dA*dA*dT*dG*dA*dG*dA*dA*kT*kG*k[5mC]) [compound 799192],60%,–
799193 (antisense kT*kA*kA*dA*dT*dT*dT*d[5mC]*d[5mC]*dA*dA*dT*dG*kA*kG*kA) [compound 799193],43%,–
799194 (antisense kT*kG*k[5mC]*dT*dA*dA*dA*dT*dT*dT*d[5mC]*d[5mC]*dA*kA*kT*kG) [compound 799194],42%,–
799195 (antisense k[5mC]*kA*kA*dT*dG*d[5mC]*dT*dA*dA*dA*dT*dT*dT*k[5mC]*k[5mC]*kA) [compound 799195],43%,–
799196 (antisense kG*k[5mC]*kA*d[5mC]*dT*dA*d[5mC]*dA*dA*dT*dG*d[5mC]*dT*kA*kA*kA) [compound 799196],47%,–
799197 (antisense k[5mC]*kT*k[5mC]*dA*dA*dA*dG*d[5mC]*dA*d[5mC]*dT*dA*d[5mC]*kA*kA*kT) [compound 799197],–,34%
799198 (antisense kG*kT*k[5mC]*d[5mC]*dT*dT*dT*d[5mC]*dT*d[5mC]*dT*d[5mC]*dT*k[5mC]*kA*kA) [compound 799198],–,17%

Substance,% Inhibition,% inhibition of SMAD7 mRNA expression
799199 (antisense kG*kG*kA*dG*dT*d[5mC]*d[5mC]*dT*dT*dT*d[5mC]*dT*d[5mC]*kT*k[5mC]*kT) [compound 799199],–,24%
799200 (antisense kT*k[5mC]*kA*dG*dG*dA*dG*dT*d[5mC]*d[5mC]*dT*dT*dT*k[5mC]*kT*k[5mC]) [compound 799200],–,69%
799201 (antisense kT*kT*kT*dT*d[5mC]*dA*dG*dG*dA*dG*dT*d[5mC]*d[5mC]*kT*kT*kT) [compound 799201],–,38%
799202 (antisense kT*kT*kT*dT*dT*dT*dT*d[5mC]*dA*dG*dG*dA*dG*kT*k[5mC]*k[5mC]) [compound 799202],–,33%
799203 (antisense kG*kG*kT*dT*dT*dT*dT*dT*dT*dT*d[5mC]*dA*dG*kG*kA*kG) [compound 799203],–,56%
799204 (antisense k[5mC]*kT*k[5mC]*dA*dG*dG*dT*dT*dT*dT*dT*dT*dT*kT*k[5mC]*kA) [compound 799204],–,36%
799205 (antisense kT*kA*kA*dA*dT*d[5mC]*dT*d[5mC]*dA*dG*dG*dT*dT*kT*kT*kT) [compound 799205],–,54%
799206 (kT*kA*kT*dA*dT*dT*dT*dA*d[5mC]*dA*dA*dG*dT*kA*kA*kT; antisense) [compound 799206],0%,–
799207 (k[5mC]*kT*kT*dT*dA*dT*dA*dT*dT*dT*dA*d[5mC]*dA*kA*kG*kT; antisense) [compound 799207],0%,–
799208 (kT*kG*kA*dT*dG*d[5mC]*dT*dT*dA*dT*dA*dA*dA*kA*k[5mC]*kG; antisense) [compound 799208],15%,–
799209 (kT*kA*kA*dT*dG*dA*dT*dG*d[5mC]*dT*dT*dA*dT*kA*kA*kA; antisense) [compound 799209],14%,–
799210 (kT*kA*kA*dA*dT*dA*dA*dT*dG*dA*dT*dG*d[5mC]*kT*kT*kA; antisense) [compound 799210],10%,–
799211 (kA*k[5mC]*kA*dT*dA*dA*dA*dT*dA*dA*dT*dG*dA*kT*kG*k[5mC]; antisense) [compound 799211],0%,–
799212 (kT*kT*kA*dT*dA*d[5mC]*dA*d[5mC]*dA*dT*dT*dG*d[5mC]*kA*k[5mC]*kA; antisense) [compound 799212],35%,–
799213 (kT*kG*kT*dT*dT*dA*dT*dA*d[5mC]*dA*d[5mC]*dA*dT*kT*kG*k[5mC]; antisense) [compound 799213],–,42%
799214 (kT*kT*k[5mC]*dT*dT*dG*dT*dT*dT*dA*dT*dA*d[5mC]*kA*k[5mC]*kA; antisense) [compound 799214],–,46%
799215 (kA*kG*k[5mC]*dA*dA*dA*dG*dT*dG*d[5mC]*dA*dT*d[5mC]*kT*kT*kT; antisense) [compound 799215],–,0%
799216 (kT*kA*kT*dT*dA*dA*dA*dG*d[5mC]*dA*dA*dA*dG*kT*kG*k[5mC]; antisense) [compound 799216],–,49%
799217 (kG*kT*kT*dA*dT*dT*dT*dG*d[5mC]*dA*dT*dT*dT*kA*kT*kA; antisense) [compound 799217],–,0%
799218 (k[5mC]*kA*kT*dT*dT*dG*dT*dT*dA*dT*dT*dT*dG*k[5mC]*kA*kT; antisense) [compound 799218],–,0%
